Drawing on PubChem BioAssay AID179 (DTP/NCI, 2004), this text covers EC50, IC50 and outcome for 51 compounds.

Structures are written as SMILES. Several values for one entry are separate records, joined by “and”; a condition that tells them apart may be missing. Equal entries are not always repeated. Activity calls are given as the source filed them.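 The calls were made as follows: active = compounds giving half or more protection of infected cells from virus-caused growth loss, again on retest; inactive = the rest.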 Where a SMILES comes first, the peptide text is derived from it. Bridges are numbered along the chain shown (N, C = ends). [ ]: non-standard residue; d: D form. The star is where a group is joined. ξ: configuration not given here. X16 = O=C(/C=C/C=C/C=C/C=C/C=C/C(=O)*)NC1=C(O)CCC1=O; NMeA = CN[C@@H](C)C(=O)O; ξF = NC(Cc1ccccc1)C(=O)O; ξA = CC(N)C(=O)O Where only a bound is given, the exact number is not on record here.

This assay deals with CEM cells HIV-1 protection, formazan growth assay. In words: NCI AIDS Antiviral Assay. To be noted: for IC50: measured here: growth of uninfected CEM cells. In a few lines: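 Protection of CEM cells against HIV-1 measured as cell growth via soluble formazan read-out, with five concentrations tested on both infected and uninfected cells; failure to protect may reflect toxicity.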

Consider `Cn1c(-c2cccs2)cc(-c2ccccc2)c1-c1cccs1`, for which the EC50 (usually the concentration that produces a half-maximal response) was more than 200 µM and the IC50 (usually the concentration that gives 50% inhibition) is more than 200 µM. For `C/C(O)=C(\C=N/C(=S)Nc1ccccc1)C(=O)Nc1ccccc1`, the EC50 is more than 200 µM and the IC50 was more than 200 µM. Consider `OCC1O[C@H](O[C@@H]2CCCN3CC(O)C(O)[C@@H]23)C(O)C(O)C1O` (some centres undefined), for which the EC50 is more than 1580 µM and the IC50 is more than 1580 µM.

As for `O=c1[nH]c2ccsc2c(=O)n1COCc1ccccc1`, the EC50 was more than 200 µM and the IC50 is more than 200 µM. As to `CCOC(=O)C1Cc2c([nH]c(=O)[nH]c2=O)OC1(C)c1ccccc1` (centres undefined), the EC50 is more than 200 µM and the IC50 is more than 200 µM.

`COc1ccc(NC(=O)CC(=O)N2N=C(N3c4ccccc4Sc4ccccc43)CC2c2ccccc2)cc1` (centres undefined): the result was inactive. Take `CCc1noc(N)c1C#N`: the EC50 is more than 200 µM and the IC50 is 182 µM. As for `O=C(OCCN1CCCCC1)c1cc2ccccc2n1Cc1ccccc1`, the EC50 was more than 200 µM and the IC50 stood at 30.2 µM. As to `O=C(Cn1c2ccc(Br)cc2c2nc3ccccc3nc21)Nc1ccccc1`, the EC50 is more than 100 µM and the IC50 is more than 100 µM. Regarding `c1ccc2c(c1)C1=NCCN1c1ccccc1-2`, the EC50 is more than 309 µM and the IC50 stood at 1.86 µM. As to `Cc1ccc(S(=O)(=O)n2cc(C#N)c(C#N)c2)cc1`, the EC50 is more than 200 µM and the IC50 was determined as 57.5 µM. Regarding `CC(=O)OC1[C@@H]2[C@@H](COC(c3c(F)cccc3Cl)N2OC(C)=O)O[C@H]1n1ccc(=O)[nH]c1=O` (some centres undefined), the EC50 was more than 200 µM and the IC50 came to 115 µM. Consider `S=c1nn[nH]n1-c1ccccc1.[Zn+2]`, for which the EC50 was more than 2.57 µM and the IC50 is more than 2.57 µM. With `CCOC(=O)c1sc2c(c1O)c(=O)n(-c1ccccc1)c(=S)n2-c1ccccc1`, the EC50 was more than 17 µM and the half-inhibitory concentration (IC50) was more than 17 µM.

With `N#CCCC1(CCC#N)CCCCCCCCC(CCC#N)(CCC#N)C(O)C1O` (centres undefined), the EC50 is more than 200 µM and the half-inhibitory concentration (IC50) was more than 200 µM.

Take `O=C(Nc1ccc(Cl)c(Cl)c1)OCCN1c2ccccc2Sc2ccccc21`: the EC50 was more than 200 µM and the IC50 came out at 38 µM. On the same counts, the results for `O=C(O)c1c[nH]n2c(=S)ncnc12` are more than 871 µM and more than 871 µM. With `CC1NC(=O)[C@H](C)N(C)C(=O)[C@@H]2CCCN2C(=O)[C@@H](NC(=O)C(Cc2ccccc2)NC(=O)/C=C/C=C/C=C/C=C/C=C/C(=O)NC2=C(O)CCC2=O)COC(=O)[C@@H]2CCCN2C1=O` (some centres undefined) (X16-[ξF]SP[NMeA][ξA]P; ester 2-C), the EC50 was more than 151 µM and the IC50 is more than 151 µM. As for `O=C1CCSSCCC(=O)NCCCN1`, the EC50 was more than 40.7 µM and the IC50 is more than 40.7 µM. Take `CCCCNc1nc(N)nc(Nc2ccc(Br)cc2)c1N=O`: the EC50 was more than 55 µM and the IC50 is 23.4 µM. On the same counts, the results for `CN1C2=C(CC3=C1CC(C)(C)CC3=O)C(=O)CC(C)(C)C2` are more than 100 µM and more than 100 µM. Turning to `O=C1/C(=C/c2ccccc2)CSC/C1=C\c1ccccc1`, the EC50 is more than 200 µM and the IC50 is 2.4 µM. Consider `CN(C)CCSC1=Nc2ccc(Cl)cc2C(c2ccccc2Cl)=NC1`, for which the EC50 was more than 200 µM; the IC50 is 12.3 µM and 47.9 µM.

Consider `Cc1ccc(Nc2nc(=O)[nH]c(=O)[nH]2)cc1N`, for which the EC50 is more than 200 µM and the IC50 is more than 200 µM. With `COc1cc2c(cc1OC)-c1nc(N)sc1CC2`, the EC50 is more than 38 µM and the IC50 is more than 38 µM. `Cc1ccc(C(=O)c2ccccc2C(=O)O)cc1C` returned an EC50 of more than 200 µM and an IC50 of more than 200 µM. Regarding `O=C(N/C(=C\c1ccc(/C=C(\NC(=O)c2ccccc2)c2nc3ccccc3[nH]2)cc1)c1nc2ccccc2[nH]1)c1ccccc1`, the result was inactive. In the case of `COc1ccc(C2=C(Cl)c3cc(OC)c(OC)cc3C2Cl)cc1` (centres undefined), the outcome was inactive. Consider `C=CCC(N(C)C(=O)[C@H](Cc1ccccc1)NC(=O)OCc1ccccc1)P(=O)(Oc1ccccc1)Oc1ccccc1` (some centres undefined), for which the EC50 was more than 200 µM and the IC50 stood at 77.6 µM.

`COC(=O)[C@H](CCSC)NCc1cc(N(C)C)cc(CN[C@@H](CCSC)C(=O)OC)n1`: the EC50 is more than 200 µM and the IC50 was more than 200 µM.

In the case of `CC(=O)Nc1cc(C)ccc1Cl`, the EC50 was more than 1350 µM and the IC50 was more than 1350 µM. For the compound `Cn1cc(NC(=O)c2cc(NC(=O)CCCCCCCCCCC(=O)Nc3cc(C(=O)Nc4cc(C(=O)NCCC(=N)N)n(C)c4)n(C)c3)cn2C)cc1C(=O)NCCC(=N)N`, the EC50 is 4.07 µM and the IC50 stood at 7.76 µM.

As for `O=C(NO)c1ccc([N+](=O)[O-])cc1`, the EC50 was more than 200 µM and the IC50 is 29.5 µM. The matching figures for `Cc1ccccc1C1CC(=O)CC(c2ccccc2C)C12C(=O)NC(=O)NC2=O` (centres undefined): more than 200 µM and 105 µM. On the same counts, the results for `CC(C)(C)OC(=O)NC(Cc1ccccc1)OCc1ccccc1` (centres undefined) are more than 200 µM and 45.7 µM. For `CCn1cnnc1-c1nsc2ccccc12`, the EC50 was more than 81.3 µM and the IC50 came out at 75.9 µM. As to `N#Cc1nc(C#N)n(S(=O)(=O)c2ccccc2)c1NS(=O)(=O)c1ccccc1`, the EC50 was more than 200 µM and the concentration for half-maximal inhibition (IC50) was more than 200 µM. `CNc1cc(Cl)ccc1S(=O)(=O)c1ccccc1[N+](=O)[O-]`: the EC50 is 5.37 µM and the half-maximal inhibitory concentration (IC50) was more than 200 µM. For `OC1CSCCSCCCSCCSC1`, the EC50 is more than 126 µM and the IC50 is more than 126 µM. In the case of `CCN(Cc1cccc(S(=O)(=O)O)c1)c1ccc(C(=C2C=CC(=[N+](CC)Cc3cccc(S(=O)(=O)O)c3)C=C2)c2ccc(S(=O)(=O)O)cc2)cc1`, the EC50 was more than 112 µM and the IC50 was found to be 79.4 µM. As to `C[N+]1(C)C[C@@H](O)C[C@@H]1C(=O)[O-]`, the EC50 is more than 1580 µM and the IC50 was more than 1580 µM.

For `CCOC(=O)c1ccc(-n2nc(C)cc(Cl)c2=O)cc1`, the EC50 is more than 123 µM and the IC50 is 23.4 µM. Take `CCOC(=O)CC1(CC(=O)OCC)C(=O)N(C)c2ccccc21`: the EC50 is more than 200 µM and the IC50 was more than 200 µM. On to `COc1cc(C2c3cc4c(cc3OC3(N5CCCC5)CCCC23)OCO4)cc(OC)c1OC` (centres undefined), for which the EC50 was more than 550 µM and the half-inhibitory concentration (IC50) stood at 2.82 µM. The matching figures for `CC1=CCC(=O)[C@]2(C)C(CC(=O)O)[C@]3(C)C4=C(C)C(c5ccoc5)C[C@@H]4O[C@@H]3[C@H](O)[C@@H]12` (some centres undefined): more than 550 µM and more than 550 µM. For the compound `O=C1NC(=S)N/C1=C\c1ccc(Sc2ccccc2C(=O)O)s1`, the EC50 was more than 200 µM and the IC50 came out at 110 µM. The matching figures for `O=C(O)CCCCCCCCCCCOc1ccccc1`: more than 200 µM and 63.1 µM.

As for `CC(=O)NC1C(O)OC(CO)C(O)C1OC(C)C(=O)N[C@@H](CC(N)=O)C(=O)N[C@H](CCC(=O)O)C(N)=O` (some centres undefined), the EC50 was more than 468 µM and the IC50 came to 219 µM. With `O=C(NC(=Nc1ccccc1)SCSC(=Nc1ccccc1)NC(=O)c1ccccc1Cl)c1ccccc1Cl`, the EC50 was more than 200 µM and the IC50 stood at 30.9 µM. With `O=c1oc2c/c(=C\c3ccccn3)c(=O)c3cccc1c3-2`, the EC50 was more than 200 µM and the IC50 amounted to 3.72 µM. The matching figures for `[O-][N+]1=C(c2ccccc2)COc2ccccc21`: more than 115 µM and more than 115 µM.
